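Method: 48-hour compound exposure of cells in 96-well plates, five concentrations, linear interpolation of endpoints. The concentration for 50% growth inhibition is given as GI50.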 Calls of active or inactive are those of the source. No stated cut-off is given here; in the data, active = GI50 up to about 1.1 µM and inactive = higher.
Legend:
Experiment in all cases: NCI anticancer screen, dose series, 48 h
DU-145 = test system: DU-145
U-251 = test system: U-251
HT-29 = test system: HT-29
LOX IMVI = test system: LOX IMVI
MOLT-4 = test system: MOLT-4
HCC 2998 = test system: HCC 2998
M14 = test system: M14
OVCAR-5 = test system: OVCAR-5
UACC-257 = test system: UACC-257
ACHN = test system: ACHN
K562 = test system: K562
SK-MEL-5 = test system: SK-MEL-5
MCF7 = test system: MCF7
UO-31 = test system: UO-31
IGROV-1 = test system: IGROV-1
KM12 = test system: KM12
Hs-578T = test system: Hs-578T
NCI/ADR-RES = test system: NCI/ADR-RES
SF-539 = test system: SF-539
A549 = test system: A549
MDA-MB-435 = test system: MDA-MB-435
CCRF-CEM = test system: CCRF-CEM
Malme-3M = test system: Malme-3M
HCT-15 = test system: HCT-15
SK-MEL-2 = test system: SK-MEL-2
SK-OV-3 = test system: SK-OV-3
MDA-N = test system: MDA-N
SW-620 = test system: SW-620
SF-295 = test system: SF-295
MDA-MB-231 = test system: MDA-MB-231
COLO 205 = test system: COLO 205
T47D = test system: T47D
PC-3 = test system: PC-3
SNB-19 = test system: SNB-19
OVCAR-3 = test system: OVCAR-3
A498 = test system: A498
SR = test system: SR
EKVX = test system: EKVX
NCI-H23 = test system: NCI-H23
HL-60 = test system: HL-60
RPMI-8226 = test system: RPMI-8226
786-0 = test system: 786-0
HOP-62 = test system: HOP-62
UACC-62 = test system: UACC-62
HCT-116 = test system: HCT-116
OVCAR-8 = test system: OVCAR-8
SNB-75 = test system: SNB-75
BT-549 = test system: BT-549
SN12C = test system: SN12C
NCI-H226 = test system: NCI-H226
NCI-H460 = test system: NCI-H460
SF-268 = test system: SF-268
CAKI-1 = test system: CAKI-1
OVCAR-4 = test system: OVCAR-4
SK-MEL-28 = test system: SK-MEL-28
TK-10 = test system: TK-10
RXF 393 = test system: RXF 393
NCI-H522 = test system: NCI-H522

Compound: O=C1CC(C(CC(=O)c2ccccc2)c2ccccc2)C(=O)c2ccccc2N1 (centres undefined)
- GI50 (DU-145): 48.6 µM (inactive)
- GI50 (U-251): 84.7 µM (inactive)
- GI50 (HT-29): 32.3 µM (inactive)
- GI50 (LOX IMVI): 35.4 µM (inactive)
- GI50 (MOLT-4): 17.8 µM (inactive)
- GI50 (HCC 2998): 48.6 µM (inactive)
- GI50 (M14): 33.7 µM (inactive)
- GI50 (OVCAR-5): 56 µM (inactive)
- GI50 (UACC-257): 88.5 µM (inactive)
- GI50 (ACHN): 45.3 µM (inactive)
- GI50 (K562): 33.1 µM (inactive)
- GI50 (SK-MEL-5): 24.2 µM (inactive)
- GI50 (MCF7): 25.9 µM (inactive)
- GI50 (UO-31): 14.2 µM (inactive)
- GI50 (IGROV-1): > 100 µM (inactive)
- GI50 (KM12): 49.7 µM (inactive)
- GI50 (Hs-578T): 43.5 µM (inactive)
- GI50 (NCI/ADR-RES): 15.1 µM (inactive)
- GI50 (SF-539): 38.3 µM (inactive)
- GI50 (A549): 38.2 µM (inactive)
- GI50 (MDA-MB-435): 50.1 µM (inactive)
- GI50 (CCRF-CEM): 25.9 µM (inactive)
- GI50 (Malme-3M): 28.4 µM (inactive)
- GI50 (HCT-15): 33.8 µM
- GI50 (SK-MEL-2): 16 µM (inactive)
- GI50 (SK-OV-3): > 100 µM (inactive)
- GI50 (MDA-N): 49.3 µM (inactive)
- GI50 (SW-620): 68.7 µM (inactive)
- GI50 (SF-295): 37.2 µM (inactive)
- GI50 (MDA-MB-231): 49 µM (inactive)
- GI50 (COLO 205): 54.8 µM (inactive)
- GI50 (T47D): 20.7 µM (inactive)
- GI50 (PC-3): 25.5 µM (inactive)
- GI50 (SNB-19): 51.5 µM (inactive)
- GI50 (OVCAR-3): 28.4 µM (inactive)
- GI50 (A498): > 100 µM (inactive)
- GI50 (SR): 16 µM (inactive)
- GI50 (EKVX): 40.5 µM (inactive)
- GI50 (NCI-H23): > 100 µM (inactive)
- GI50 (HL-60): 31.5 µM (inactive)
- GI50 (RPMI-8226): 22.1 µM (inactive)
- GI50 (786-0): > 100 µM (inactive)
- GI50 (HOP-62): 51.1 µM (inactive)
- GI50 (UACC-62): 31.6 µM (inactive)
- GI50 (HCT-116): 49.3 µM (inactive)
- GI50 (OVCAR-8): 27.8 µM (inactive)
- GI50 (SNB-75): 30.8 µM (inactive)
- GI50 (BT-549): 29.1 µM (inactive)
- GI50 (SN12C): 35.7 µM (inactive)
- GI50 (NCI-H226): 24.4 µM (inactive)
- GI50 (NCI-H460): 33.3 µM (inactive)
- GI50 (SF-268): 53.6 µM (inactive)

Compound: C=CCc1ccccc1C1CC2(C(=O)OC)OC1C(C(=O)OC)=C2C(=O)OC (centres undefined)
- GI50 (DU-145): > 10 µM (inactive)
- GI50 (U-251): > 10 µM (inactive)
- GI50 (HT-29): > 10 µM (inactive)
- GI50 (LOX IMVI): > 10 µM (inactive)
- GI50 (MOLT-4): > 10 µM (inactive)
- GI50 (CAKI-1): > 10 µM (inactive)
- GI50 (HCC 2998): > 10 µM (inactive)
- GI50 (M14): > 10 µM (inactive)
- GI50 (OVCAR-5): > 10 µM (inactive)
- GI50 (UACC-257): > 10 µM (inactive)
- GI50 (ACHN): > 10 µM (inactive)
- GI50 (OVCAR-4): > 10 µM (inactive)
- GI50 (K562): > 10 µM (inactive)
- GI50 (SK-MEL-5): > 10 µM (inactive)
- GI50 (SK-MEL-28): > 10 µM (inactive)
- GI50 (MCF7): > 10 µM (inactive)
- GI50 (UO-31): > 10 µM (inactive)
- GI50 (IGROV-1): > 10 µM (inactive)
- GI50 (KM12): > 10 µM (inactive)
- GI50 (TK-10): > 10 µM (inactive)
- GI50 (Hs-578T): > 10 µM (inactive)
- GI50 (NCI/ADR-RES): > 10 µM (inactive)
- GI50 (SF-539): > 10 µM (inactive)
- GI50 (A549): > 10 µM (inactive)
- GI50 (MDA-MB-435): > 10 µM (inactive)
- GI50 (CCRF-CEM): > 10 µM (inactive)
- GI50 (Malme-3M): > 10 µM (inactive)
- GI50 (HCT-15): > 10 µM
- GI50 (SK-MEL-2): > 10 µM (inactive)
- GI50 (SK-OV-3): > 10 µM (inactive)
- GI50 (MDA-N): > 10 µM (inactive)
- GI50 (SW-620): > 10 µM (inactive)
- GI50 (SF-295): > 10 µM (inactive)
- GI50 (MDA-MB-231): > 10 µM (inactive)
- GI50 (COLO 205): > 10 µM (inactive)
- GI50 (RXF 393): > 10 µM (inactive)
- GI50 (T47D): > 10 µM (inactive)
- GI50 (PC-3): > 10 µM (inactive)
- GI50 (SNB-19): > 10 µM (inactive)
- GI50 (OVCAR-3): > 10 µM (inactive)
- GI50 (A498): > 10 µM (inactive)
- GI50 (SR): > 10 µM (inactive)
- GI50 (EKVX): > 10 µM (inactive)
- GI50 (NCI-H23): > 10 µM (inactive)
- GI50 (HL-60): > 10 µM (inactive)
- GI50 (RPMI-8226): > 10 µM (inactive)
- GI50 (786-0): > 10 µM (inactive)
- GI50 (HOP-62): > 10 µM (inactive)
- GI50 (UACC-62): > 10 µM (inactive)
- GI50 (HCT-116): > 10 µM (inactive)
- GI50 (OVCAR-8): > 10 µM (inactive)
- GI50 (BT-549): > 10 µM (inactive)
- GI50 (SN12C): > 10 µM (inactive)
- GI50 (NCI-H226): > 10 µM (inactive)
- GI50 (NCI-H460): > 10 µM (inactive)
- GI50 (SF-268): > 10 µM (inactive)

Compound: COC(=O)/C=C/[C@H]1[C@H](C)N1S(=O)(=O)c1ccc(C)cc1 (some centres undefined)
- GI50 (DU-145): > 100 µM (inactive)
- GI50 (U-251): > 100 µM (inactive)
- GI50 (HT-29): > 100 µM (inactive)
- GI50 (LOX IMVI): 61.7 µM (inactive)
- GI50 (MOLT-4): 70.5 µM (inactive)
- GI50 (CAKI-1): > 100 µM (inactive)
- GI50 (HCC 2998): > 100 µM (inactive)
- GI50 (M14): > 100 µM (inactive)
- GI50 (OVCAR-5): > 100 µM (inactive)
- GI50 (UACC-257): > 100 µM (inactive)
- GI50 (ACHN): 89.7 µM (inactive)
- GI50 (OVCAR-4): 56.8 µM (inactive)
- GI50 (K562): > 100 µM (inactive)
- GI50 (SK-MEL-5): > 100 µM (inactive)
- GI50 (SK-MEL-28): > 100 µM (inactive)
- GI50 (MCF7): 64.3 µM (inactive)
- GI50 (IGROV-1): > 100 µM (inactive)
- GI50 (KM12): > 100 µM (inactive)
- GI50 (TK-10): > 100 µM (inactive)
- GI50 (Hs-578T): > 100 µM (inactive)
- GI50 (NCI/ADR-RES): > 100 µM (inactive)
- GI50 (SF-539): 37 µM (inactive)
- GI50 (A549): > 100 µM (inactive)
- GI50 (MDA-MB-435): 56.5 µM (inactive)
- GI50 (CCRF-CEM): > 100 µM (inactive)
- GI50 (Malme-3M): 50.2 µM (inactive)
- GI50 (HCT-15): > 100 µM
- GI50 (SK-MEL-2): 68.7 µM (inactive)
- GI50 (SK-OV-3): > 100 µM (inactive)
- GI50 (MDA-N): > 100 µM (inactive)
- GI50 (SW-620): 80.4 µM (inactive)
- GI50 (SF-295): > 100 µM (inactive)
- GI50 (MDA-MB-231): > 100 µM (inactive)
- GI50 (COLO 205): > 100 µM (inactive)
- GI50 (RXF 393): > 100 µM (inactive)
- GI50 (T47D): > 100 µM (inactive)
- GI50 (PC-3): > 100 µM (inactive)
- GI50 (SNB-19): > 100 µM (inactive)
- GI50 (OVCAR-3): 58.7 µM (inactive)
- GI50 (A498): > 100 µM (inactive)
- GI50 (SR): 31.6 µM (inactive)
- GI50 (EKVX): > 100 µM (inactive)
- GI50 (NCI-H23): 74.3 µM (inactive)
- GI50 (HL-60): > 99.5 µM (inactive)
- GI50 (RPMI-8226): 51.6 µM (inactive)
- GI50 (786-0): 82.4 µM (inactive)
- GI50 (HOP-62): > 100 µM (inactive)
- GI50 (UACC-62): > 100 µM (inactive)
- GI50 (HCT-116): 41.8 µM (inactive)
- GI50 (OVCAR-8): > 100 µM (inactive)
- GI50 (BT-549): > 100 µM (inactive)
- GI50 (SN12C): > 100 µM (inactive)
- GI50 (NCI-H226): > 100 µM (inactive)
- GI50 (NCI-H460): > 100 µM (inactive)
- GI50 (SF-268): > 100 µM (inactive)
- GI50 (NCI-H522): 48.6 µM (inactive)

— ChEMBL document CHEMBL1201862, “PubChem BioAssay data set” (2004)
